# Test results published in PubChem BioAssay AID248 (DTP/NCI, 2004).
# Inconclusive results and toxic doses are left out.
# System: L1210 leukemia ip in BDF1 mice, survival T/C
# Experiment: NCI In Vivo Anticancer Drug Screen. Data for tumor model L1210 Leukemia (intraperitoneal) in B6D2F1 (BDF1) mice
# Conditions: endpoint: mean survival time, higher = longer survival
# Method in brief: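 Antitumor effect is assessed in tumor-bearing animals. Survival in the compound arm is compared with a vehicle-dosed control arm and expressed as their quotient.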
# [1] = dose: 75.0 mg/kg/injection, schedule: Q01DX001 (ip), vehicle: saline
# [2] = dose: 100.0 mg/kg/injection, schedule: Q01DX001 (ip), vehicle: carboxymethylcellulose (CMC)
# [3] = dose: 200.0 mg/kg/injection, schedule: Q01DX001 (ip), vehicle: carboxymethylcellulose (CMC)
# [4] = dose: 400.0 mg/kg/injection, schedule: Q01DX001 (ip), vehicle: carboxymethylcellulose (CMC)
# [5] = dose: 100.0 mg/kg/injection, schedule: Q04DX003 (ip), vehicle: Klucel (hydroxypropylcellulose) (HPC)
# [6] = dose: 200.0 mg/kg/injection, schedule: Q04DX003 (ip), vehicle: Klucel (hydroxypropylcellulose) (HPC)
# [7] = dose: 400.0 mg/kg/injection, schedule: Q04DX003 (ip), vehicle: Klucel (hydroxypropylcellulose) (HPC)
# [8] = dose: 3.12 mg/kg/injection, schedule: Q01DX009 (ip), vehicle: saline
# [9] = dose: 6.25 mg/kg/injection, schedule: Q01DX009 (ip), vehicle: saline
# [10] = dose: 50.0 mg/kg/injection, schedule: Q01DX009 (ip), vehicle: saline
# [11] = dose: 50.0 mg/kg/injection, schedule: Q04DX003 (ip), vehicle: saline
# [12] = dose: 100.0 mg/kg/injection, schedule: Q01DX009 (ip), vehicle: saline
# [13] = dose: 100.0 mg/kg/injection, schedule: Q04DX002 (ip), vehicle: saline with Tween-80
# [14] = dose: 200.0 mg/kg/injection, schedule: Q04DX002 (ip), vehicle: saline with Tween-80
# [15] = dose: 400.0 mg/kg/injection, schedule: Q04DX002 (ip), vehicle: saline with Tween-80
# [16] = dose: 100.0 mg/kg/injection, schedule: Q01DX001 (ip), vehicle: saline
# [17] = dose: 200.0 mg/kg/injection, schedule: Q01DX001 (ip), vehicle: saline
# [18] = dose: 400.0 mg/kg/injection, schedule: Q01DX001 (ip), vehicle: saline
# [19] = dose: 100.0 mg/kg/injection, schedule: Q04DX003 (ip), vehicle: saline
# [20] = dose: 200.0 mg/kg/injection, schedule: Q04DX003 (ip), vehicle: saline
smiles,measurement,setting,value
O=C(O)c1ccc(N=NSc2ncnc3nc[nH]c23)cc1O,T/C,"dose: 2.5 mg/kg/injection, schedule: Q01DX Z (ip), vehicle: carboxymethylcellulose (CMC)",150 % of control
same,T/C,"dose: 5.0 mg/kg/injection, schedule: Q01DX Z (ip), vehicle: carboxymethylcellulose (CMC)",116 % of control
same,T/C,"dose: 10.0 mg/kg/injection, schedule: Q01DX Z (ip), vehicle: carboxymethylcellulose (CMC)",116 % of control
same,T/C,"dose: 20.0 mg/kg/injection, schedule: Q01DX Z (ip), vehicle: carboxymethylcellulose (CMC)",107 % of control
same,T/C,"dose: 40.0 mg/kg/injection, schedule: Q01DX015 (ip), vehicle: carboxymethylcellulose (CMC)",88 % of control
C=C1C(=O)OCC1C(=O)O (stereo unspecified),T/C,[1],98 % of control
CCCCS(=O)(=O)Cc1ccccc1,T/C,"dose: 100.0 mg/kg/injection, schedule: Q01DX009 (ip), vehicle: Klucel (hydroxypropylcellulose) (HPC)",98 % of control
same,T/C,"dose: 100.0 mg/kg/injection, schedule: Q04DX002 (ip), vehicle: Klucel (hydroxypropylcellulose) (HPC)",100 % of control
same,T/C,"dose: 200.0 mg/kg/injection, schedule: Q01DX009 (ip), vehicle: Klucel (hydroxypropylcellulose) (HPC)",103 % of control
same,T/C,"dose: 200.0 mg/kg/injection, schedule: Q04DX002 (ip), vehicle: Klucel (hydroxypropylcellulose) (HPC)",96 % of control
same,T/C,"dose: 400.0 mg/kg/injection, schedule: Q01DX009 (ip), vehicle: Klucel (hydroxypropylcellulose) (HPC)",98 % of control
same,T/C,"dose: 400.0 mg/kg/injection, schedule: Q04DX002 (ip), vehicle: Klucel (hydroxypropylcellulose) (HPC)",93 % of control
O=C(CCl)NCc1ccc(Cl)cc1,T/C,"dose: 50.0 mg/kg/injection, schedule: Q01DX001 (ip), vehicle: other",102 % of control
same,T/C,"dose: 100.0 mg/kg/injection, schedule: Q01DX001 (ip), vehicle: other",93 % of control
same,T/C,"dose: 200.0 mg/kg/injection, schedule: Q01DX001 (ip), vehicle: other",102 % of control
Nc1nc(Nc2cccc(Cl)c2)cc(=O)[nH]1,T/C,"dose: 100.0 mg/kg/injection, schedule: Q01DX Z (ip), vehicle: methylcellulose (MC)",90 % of control
same,T/C,"dose: 200.0 mg/kg/injection, schedule: Q01DX Z (ip), vehicle: methylcellulose (MC)",99 % of control
COc1ccccc1CN1CCCOP1(=O)Nc1ccccc1 (stereo unspecified),T/C,"dose: 50.0 mg/kg/injection, schedule: Q01DX001 (ip), vehicle: carboxymethylcellulose (CMC)",91 % of control
same,T/C,[2],91 % of control
same,T/C,[3],93 % of control
same,T/C,[4],93 % of control
O=C(O)/C=C\C(=O)Nc1ccc(O)cc1,T/C,[5],102 % of control
same,T/C,"dose: 200.0 mg/kg/injection, schedule: Q01DX Z (ip), vehicle: saline",120 % of control
same,T/C,[6],110 % of control
same,T/C,[7],110 % of control
same,T/C,"dose: 675.0 mg/kg/injection, schedule: Q01DX Z (ip), vehicle: saline",100 % of control
CN(C)CC(C)(C)CN1c2ccccc2Sc2ccccc21,T/C,[8],90 % of control
same,T/C,[9],103 % of control
same,T/C,"dose: 12.5 mg/kg/injection, schedule: Q01DX009 (ip), vehicle: saline",101 % of control
same,T/C,"dose: 25.0 mg/kg/injection, schedule: Q01DX009 (ip), vehicle: saline",97 % of control
same,T/C,"dose: 25.0 mg/kg/injection, schedule: Q04DX003 (ip), vehicle: saline",101 % of control
same,T/C,[10],106 % of control
same,T/C,[11],91 % of control
same,T/C,[12],100 % of control
CC1=NN(c2ccccc2)C(=O)C1N=Nc1ccc(S(=O)(=O)Nc2cc(C)nc(C)n2)cc1 (stereo unspecified),T/C,[2],98 % of control
same,T/C,[3],98 % of control
same,T/C,[4],95 % of control
CCOC(=O)C1Oc2ccccc2O1,T/C,"dose: 100.0 mg/kg/injection, schedule: Q01DX009 (ip), vehicle: saline with Tween-80",105 % of control
same,T/C,[13],113 % of control
same,T/C,"dose: 200.0 mg/kg/injection, schedule: Q01DX009 (ip), vehicle: saline with Tween-80",99 % of control
same,T/C,[14],100 % of control
same,T/C,"dose: 400.0 mg/kg/injection, schedule: Q01DX009 (ip), vehicle: saline with Tween-80",101 % of control
same,T/C,[15],97 % of control
CC[N+](C)(CC)CC[N+]1(C)CC2CC=CCC2C1 (stereo unspecified),T/C,"dose: 222.0 mg/kg/injection, schedule: Q01DX Z (ip), vehicle: saline",94 % of control
same,T/C,"dose: 333.0 mg/kg/injection, schedule: Q01DX Z (ip), vehicle: saline",97 % of control
same,T/C,"dose: 500.0 mg/kg/injection, schedule: Q01DX Z (ip), vehicle: saline",94 % of control
CCCCN(C(=O)O)P(=O)(OCC)OCC,T/C,[10],101 % of control
same,T/C,[12],103 % of control
same,T/C,"dose: 200.0 mg/kg/injection, schedule: Q01DX009 (ip), vehicle: saline",109 % of control
same,T/C,"dose: 400.0 mg/kg/injection, schedule: Q01DX009 (ip), vehicle: saline",97 % of control
CC1(O)C(c2ccccc2)=Nc2ccccc21 (stereo unspecified),T/C,[13],95 % of control
same,T/C,[14],113 % of control
same,T/C,[15],92 % of control
O=C(O)C1Nc2ccccc2NC1=O (stereo unspecified),T/C,"dose: 100.0 mg/kg/injection, schedule: Q01DX001 (ip), vehicle: Klucel (hydroxypropylcellulose) (HPC)",100 % of control
same,T/C,"dose: 200.0 mg/kg/injection, schedule: Q01DX001 (ip), vehicle: Klucel (hydroxypropylcellulose) (HPC)",94 % of control
same,T/C,"dose: 400.0 mg/kg/injection, schedule: Q01DX001 (ip), vehicle: Klucel (hydroxypropylcellulose) (HPC)",106 % of control
Nc1nc2nc(-c3ccc([N+](=O)[O-])cc3)nc(N)c2nc1-c1ccc(N(CCCl)CCCl)cc1,T/C,[16],96 % of control
same,T/C,[17],95 % of control
same,T/C,[18],101 % of control
CCN(C(=O)N(CCCl)N=O)C1CCCCC1,T/C,[1],97 % of control
CC(=O)OCC(C)c1ccccc1 (stereo unspecified),T/C,"dose: 100.0 mg/kg/injection, schedule: Q04DX002 (ip), vehicle: saline",96 % of control
same,T/C,"dose: 200.0 mg/kg/injection, schedule: Q04DX002 (ip), vehicle: saline",103 % of control
same,T/C,"dose: 400.0 mg/kg/injection, schedule: Q04DX002 (ip), vehicle: saline",96 % of control
O=C(Nc1cccc(Cl)c1)OCCN(CCOC(=O)Nc1cccc(Cl)c1)Cc1ccccc1,T/C,[16],106 % of control
same,T/C,[17],95 % of control
same,T/C,[18],97 % of control
CC(=O)OC1CCC2(C)C(CCC3(C)C2CC=C2C4=C(CCC(C)(C)C4=O)CCC23C)C1(C)C (stereo unspecified),T/C,[19],102 % of control
same,T/C,[20],100 % of control
same,T/C,"dose: 400.0 mg/kg/injection, schedule: Q04DX003 (ip), vehicle: saline",92 % of control
CNC(=O)Nc1ncn[nH]1,T/C,"dose: 75.0 mg/kg/injection, schedule: Q01DX001 (ip), vehicle: carboxymethylcellulose (CMC)",103 % of control
same,T/C,"dose: 150.0 mg/kg/injection, schedule: Q01DX001 (ip), vehicle: carboxymethylcellulose (CMC)",98 % of control
same,T/C,"dose: 300.0 mg/kg/injection, schedule: Q01DX001 (ip), vehicle: carboxymethylcellulose (CMC)",104 % of control
Nc1n[nH]c(N)n1.[Pt],T/C,[10],102 % of control
same,T/C,[11],97 % of control
same,T/C,[12],102 % of control
same,T/C,[19],102 % of control
same,T/C,[20],100 % of control
CCCCNC(=O)CC#N,T/C,[5],104 % of control
same,T/C,[6],107 % of control
same,T/C,[7],107 % of control
CC1(C)C2(C(N)=O)C(=O)NC(=O)C12C(=O)O (stereo unspecified),T/C,[14],92 % of control
O=C(N/N=C/c1cc([N+](=O)[O-])ccc1O)c1cccc2ccccc12,T/C,[16],90 % of control
same,T/C,[17],90 % of control
same,T/C,[18],92 % of control
C=C(NC(=O)C(=C)NC(=O)c1csc(C2=NC3c4csc(n4)C4NC(=O)c5csc(n5)C(C(C)(O)C(C)O)NC(=O)C5CSC(=N5)/C(=C/C)NC(=O)C(C(C)O)NC(=O)c5csc(n5)C3(CC2)NC(=O)C(C)NC(=O)C(=C)NC(=O)C(=C)NC(=O)C(C(C)C)NC2C=Cc3c(C(C)O)cc(nc3C2O)C(=O)OC4C)n1)C(N)=O (stereo unspecified),T/C,[8],101 % of control
same,T/C,[9],117 % of control
